Results published in PubChem BioAssay AID467 (The Scripps Research Institute Molecular Screening Center, 2006).
Activity calls are given as the source filed them. How the calls were made is not given here.

Tested on: parental cell line counter screen, S1P1 agonist assay readout
Experiment: signal in parental cells, counter-screen for S1P1 agonist project (AID 467);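 further: agonist potency measured against forskolin stimulation plus an EC20 level of SEW2871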

| SMILES | EC50 |
| --- | --- |
| CC(=O)c1ccc(N2CCN(c3ccc(C(F)(F)F)cn3)CC2)cc1 | > 95.1 µM (inactive) |
| Clc1ccc(NCn2cncn2)nc1 | > 95.1 µM (inactive) |
| CCOC(=O)c1sc2nc(NC(=O)C3CCCCC3)sc2c1C | > 95.1 µM (inactive) |
| Nc1c(C(=O)NC2CCCC2)sc2nc(-c3cccs3)ccc12 | 23.1 µM (inactive) |
| CCOC(=O)Nc1ccc2c(c1)N(C(=O)CCN(C)C)c1ccccc1S2 | > 10 µM (inactive) |
| c1ccc(CN2CCN(c3ncnc4c3[nH]c3ccccc34)CC2)cc1 | 12.1 µM (inactive) |
| N/C(=N\c1nc2c(c(=O)[nH]1)CCCC2)Nc1ccccc1 | > 95.1 µM (inactive) |
| FC(F)(F)c1ccc(N2CCN(c3cc(-c4ccccc4)nc4ncnn34)CC2)nc1 | > 95.1 µM (inactive) |
| CCOC(=O)c1ccc2nc(NC(=O)c3ccco3)sc2c1 | > 95.1 µM (inactive) |
| O=S(=O)(c1cccs1)N1CCN(CC(O)COc2cc(Cl)ccc2Cl)CC1 (stereo not drawn) | 24.6 µM (inactive) |
| Cc1nn(-c2nc3ccccc3s2)c(N)c1-c1ccccc1 | > 95.1 µM (inactive) |
| CCCCOc1ncnc2c1[nH]c1ccc(F)cc12 | > 95.1 µM (inactive) |
| O=C(Nc1ccccc1C(F)(F)F)c1cc(-c2ccc(O)cc2)on1 | > 95.1 µM (inactive) |
| Cc1ccc(-c2n[nH]c(=S)n2C)cc1 | > 95.1 µM (inactive) |
| Cc1ccccc1-n1c(SCC(=O)c2cc(C)n(C)c2C)nnc1-c1ccncc1 | > 95.1 µM (inactive) |
| Cn1nc(CC(=O)Nc2ccc3c(c2)OCCO3)c2ccccc2c1=O | > 30 µM (inactive) |
| COCCn1c(C)cc(C(=O)CSc2nnc(-c3cccnc3)n2-c2ccccc2F)c1C | > 95.1 µM (inactive) |
| CCn1c(SCC(=O)Nc2nc3ccc(C)cc3s2)nc2c(c1=O)SC(C)C2 (stereo not drawn) | > 10 µM (inactive) |
| CC(C)N1C(=O)CCC1C(=O)N1CCC(Cc2ccccc2)CC1 (stereo not drawn) | > 95.1 µM (inactive) |
| Oc1ccc(-c2nnc(SCC3CCCCC3)o2)cc1 | > 10 µM (inactive) |
| CN(Cc1cccs1)c1ncnc2sccc12 | > 30 µM (inactive) |
| Cc1oc2cc(O)cc(O)c2c(=O)c1-c1ccc2c(c1)OCCCO2 | > 30 µM (inactive) |
| Cc1ccc(O)c(NC(=O)CCC2CCCCC2)c1 | 50.1 µM (inactive) |
| CC1Cc2ccccc2N1c1ncnc2nc[nH]c12 (stereo not drawn) | 11.4 µM (inactive) |
| CCn1nc(-c2cccs2)nc2c(=O)n(C)c(=O)nc1-2 | 12.3 µM (inactive) |
| CC(C)Cn1c(N)c(C(=O)CSc2ccc3c(c2)OCCO3)c(=O)n(C)c1=O | 88.5 µM (inactive) |

| SMILES | EC50 |
| --- | --- |
| O=C(Nc1nccs1)c1ccc(S(=O)(=O)NCC2CCCCC2)cc1 | > 30 µM (inactive) |
| CC(C)(C)SCCNS(=O)(=O)c1ccccc1 | > 95.1 µM (inactive) |
| Nc1nnnn1/N=C/C(Br)=C/c1ccccc1 | 4.08 µM |
| COC(=O)CC1SC(=O)NC1=Nc1ccccc1 (stereo not drawn) | > 95.1 µM (inactive) |
| COc1ccc(CNC(=O)c2cc3c(C)nc4ccccc4c3o2)c(OC)c1 | > 95.1 µM (inactive) |
| CCOC(=O)c1oc2cc(O)c(CC)cc2c(=O)c1-c1ccc2c(c1)OCCO2 | > 30 µM (inactive) |
| COc1ccccc1OCc1nc(C#N)c(N2CC(C)CC(C)C2)o1 (stereo not drawn) | > 95.1 µM (inactive) |
| Cc1ccc(Cl)cc1N1CCN(C(=O)COc2ccc(S(=O)(=O)NC(C)C)cc2)CC1 | 30 µM (inactive) |
| Cc1cc(N2CCN(C(c3ccccc3)c3ccccc3)CC2)n2ncnc2n1 | > 30 µM (inactive) |
| CCc1cc2c(N3CCN(c4ccccc4)CC3)ncnc2s1 | 16.3 µM (inactive) |
| Oc1c(C(c2ccco2)N2CCN(C(c3ccccc3)c3ccccc3)CC2)sc2ncnn12 (stereo not drawn) | 39.5 µM (inactive) |
| c1ccc2c(c1)oc1c(N3CCN(Cc4ccc5c(c4)OCO5)CC3)ncnc12 | 21.3 µM (inactive) |
| CCOc1ccc(-c2nnc(-c3cccs3)o2)cc1OCC | > 95.1 µM (inactive) |
| O=C(Nc1nc(-c2nc3ccccc3s2)cs1)c1ccc(S(=O)(=O)N2CCOCC2)cc1 | 27.5 µM (inactive) |
| Cc1csc(NC(=O)C(Cc2ccccc2)n2cccc2)n1 (stereo not drawn) | > 30 µM (inactive) |
| CCC(C)c1ccc2oc(-c3ccc(NC(=O)c4ncn[nH]4)cc3)nc2c1 (stereo not drawn) | > 95.1 µM (inactive) |
| Cc1cc2nc(-c3ccc(NC(=O)C(C)C)cc3)oc2cc1C | > 95.1 µM (inactive) |
| c1ccc(N2CCN(c3ncnc4c3oc3ccccc34)CC2)cc1 | > 95.1 µM (inactive) |
| CCn1nc(-c2ccccc2)nc2c(=O)n(C)c(=O)nc1-2 | 2.09 µM |
| Cn1nc(C(C)(C)C)cc1C(=O)NCc1ccc(N2CCCC2=O)cc1 | > 30 µM (inactive) |
| CCOC(=O)Cc1csc(NC(=O)c2ccc(Br)s2)n1 | 47.9 µM (inactive) |
| CCOc1ccc(C2CC(c3cccc(OC)c3OC)n3nnnc3N2)cc1Cl (stereo not drawn) | > 95.1 µM (inactive) |
| Cc1nnc(SC(=O)N2c3ccccc3Sc3ccccc32)s1 | 3.42 µM |
| CCOc1nc(C)ccc1-c1noc(-c2ccncc2)n1 | > 95.1 µM (inactive) |
| COc1ccc(-n2nnnc2S(=O)(=O)CC(=O)N2CCCCC2)cc1 | 2.35 µM |
| CC1CCCC(C)N1C(=O)CN1CCN(c2nc(-c3ccc(F)cc3)cs2)CC1 (stereo not drawn) | 21.7 µM (inactive) |

| SMILES | EC50 |
| --- | --- |
| O=C1C2CCCN2C(c2cccnc2)N1c1cccc(Cl)c1 (stereo not drawn) | > 95.1 µM (inactive) |
| COc1ccc(S(=O)(=O)N2CCN(c3ccc(C)cc3C)CC2)cc1OC | 28.4 µM (inactive) |
| Cc1ccc(-c2csc(N3CCC(NS(=O)(=O)c4ccc5c(c4)OCCO5)CC3)n2)cc1 | 5.75 µM |
| Cc1ccc(NC(=O)c2cc(-c3ccco3)on2)cc1C | > 95.1 µM (inactive) |
| CC(=O)Nc1ccccc1OCC(=O)c1cc(C)n(Cc2cccs2)c1C | 10.5 µM (inactive) |
| CC(C)Cc1cc(C(=O)Nc2cc(Br)ccc2O)no1 | > 10 µM (inactive) |
| COc1cccc2sc(Nc3nc(-c4ccccn4)cs3)nc12 | 8.08 µM |
| Clc1ccccc1C1=Nn2c(nnc2-c2ccncc2)SC1 | 13.9 µM (inactive) |
| Cc1nc2ccccc2c2oc(C(=O)NCC3COc4ccccc4O3)cc12 (stereo not drawn) | 20.2 µM (inactive) |
| Cc1ccc2nc(C(F)(F)F)c(C#N)c(N)c2c1 | 6.47 µM |
| O=c1[nH]nc(Sc2ncnc3sccc23)n1CCc1ccccc1 | 21.1 µM (inactive) |
| O=C(CCC(=O)N(Cc1ccco1)C(C(=O)NC1CCCC1)c1ccncc1)Nc1cccnc1 (stereo not drawn) | > 95.1 µM (inactive) |
| CC(C)c1ccc2oc(-c3cc(N)ccc3O)nc2c1 | > 30 µM (inactive) |
| CC(=O)Oc1ccc(N2C(=O)C3C(C2=O)C2(C)C=CC3(C)O2)cc1 (stereo not drawn) | 3.23 µM |
| Cc1ccccc1-c1nnc(SCc2ccccc2F)o1 | > 95.1 µM (inactive) |
| O=C(Nc1ccc(N2CCCCC2)c(Cl)c1)c1ncn[nH]1 | > 95.1 µM (inactive) |
| CCC(C)OC(=O)c1[nH]c2c(c1C)C(=O)CC(c1ccc(N(C)C)cc1)C2 (stereo not drawn) | > 30 µM (inactive) |
| Cc1cc(C(=O)CSc2nnc(-c3cccs3)o2)c(C)n1-c1ccccc1 | 19.2 µM (inactive) |
| COc1ccccc1-n1nnnc1SCc1cc2c(cc1Br)OCO2 | > 95.1 µM (inactive) |
| O=C(CSc1ncnc2c1oc1ccccc12)N1CCCc2ccccc21 | > 10 µM (inactive) |
| O=C(CSc1nnc(Cn2nnc3ccccc32)o1)N(Cc1ccc(F)cc1)c1ccccc1 | 30.6 µM (inactive) |
| Cc1cc(C(=O)Nc2sc(C)c(-c3ccc(F)cc3)c2C(N)=O)no1 | > 95.1 µM (inactive) |
| CC(C)C(c1nnnn1Cc1ccccc1)N(Cc1ccco1)Cc1cccs1 (stereo not drawn) | > 95.1 µM (inactive) |
| Cc1nc2ncnn2c(N2CCN(c3cccc(C(F)(F)F)c3)CC2)c1C | > 30 µM (inactive) |
| c1ccc(CNc2ncnc3ccccc23)cc1 | 30.1 µM (inactive) |
| COc1ccc(-n2c(C)c(C(C)=O)c3cc(O)ccc32)cc1 | > 95.1 µM (inactive) |

| SMILES | EC50 |
| --- | --- |
| CC(=O)c1sc(NC(=O)C2(F)C(F)(F)C(F)(F)C(F)(F)C(F)(F)C2(F)F)nc1C | 31.2 µM (inactive) |
| CC(C)c1ccc2oc(-c3ccc(N)cc3)nc2c1 | > 30 µM (inactive) |
| COc1ccc(C(=O)C(CN2CCOCC2)c2ccccc2)cc1F (stereo not drawn) | 8.06 µM |
| Cc1sc2ncnc(Sc3nnnn3-c3ccccc3)c2c1C | > 30 µM (inactive) |
| CCCOC(=O)c1[nH]c2c(c1C)C(=O)CC(c1cc(OC)c(OC)c(OC)c1)C2 (stereo not drawn) | 35.5 µM (inactive) |
| O=C(Nc1c(F)cc(F)cc1Br)c1cc(-c2ccc(O)cc2)on1 | 53.6 µM (inactive) |
| CC(C)OC(=O)CSc1nc(N)c(C#N)c(-c2cccs2)c1C#N | > 95.1 µM (inactive) |
| COc1ccccc1-c1cc(C(=O)Nc2cc(C)nn2-c2ccccc2)no1 | > 95.1 µM (inactive) |
| COc1ccc(-n2c(C)cc(C(=O)COC(=O)Cn3cnc4ccccc43)c2C)cc1 | > 30 µM (inactive) |
| CCOC(=O)c1ccc2c(c1)C(=O)N(C1CCCCC1)C2=O | > 95.1 µM (inactive) |
| Nc1ccc(N2CCOCC2)c(Cl)c1 | > 95.1 µM (inactive) |
| CCC1CCCCN1C(=O)CSc1nnc(-c2c[nH]c3ccccc23)o1 (stereo not drawn) | > 30 µM (inactive) |
| C/C(N)=C(/C#N)C(=O)CSc1nnc(SCc2ccc(Cl)cc2)s1 | > 95.1 µM (inactive) |
| O=C(C1CC1)N1CCc2cc(S(=O)(=O)NCC3COc4ccccc4O3)ccc21 (stereo not drawn) | > 30 µM (inactive) |
| COc1ccc(NC(=O)c2cc(-c3cccs3)on2)cc1OC | > 95.1 µM (inactive) |
| COc1ccc(-c2noc(-c3cc(C)cc(C)c3)n2)cc1OC | > 95.1 µM (inactive) |
| CC(=O)Nc1ccc(S(=O)(=O)N2CCN(c3cccc(C)c3C)CC2)cc1 | 36.5 µM (inactive) |
| NC(=O)c1ccc(OCC(F)(F)C(F)(F)C(F)(F)C(F)(F)C(F)(F)C(F)F)cc1 | > 95.1 µM (inactive) |
| O=C(Nc1nc2c(s1)CCCC2)c1cc2n(n1)C(C(F)(F)F)CC(C1CC1)N2 (stereo not drawn) | > 95.1 µM (inactive) |
| O=S1(=O)C=C(Sc2nnc(-c3ccccc3)o2)c2ccccc21 | 3.16 µM |
| Cc1cc(C(=O)CSc2nnnn2C)c(C)n1-c1cccc(F)c1 | > 95.1 µM (inactive) |
| O=C(Nc1ccc(S(=O)(=O)NCc2ccco2)cc1)c1ccc2ccccc2n1 | > 95.1 µM (inactive) |
| Cc1ccccc1OCCCCc1c(C)n[nH]c1C | > 30 µM (inactive) |
| CCCCc1ccc(C2C(C#N)=C(N)SC(N)=C2C#N)s1 | 16.8 µM (inactive) |
| CCc1ccc(-c2nc(-c3ccncc3)no2)cc1 | > 95.1 µM (inactive) |
